Reference: patent US8192962B2, “Processes for detecting toxic substances” (Daikin Industries, Ltd., priority 2001, dated 2012)

System: Genes belonging to other category
Experiment: DNA chip mRNA expression in yeast, genes belonging to other category (Table 9)
Assay type: cell-based, Saccharomyces cerevisiae S288C
Method: Yeast (Saccharomyces cerevisiae S288C (α SUC2mal mel gap2 CUP1)) were incubated at 25° C. on YPD medium (yeast extract 1%, polypepton 2%, glucose 2%). One of toxic chemical substances was added to the cells at logarithmic growth phase, and the cells were further incubated for two hours. Cells were cultured without any chemical substance in the same condition, and were used as control. Concentrations of the chemical substances were defined to inhibit the growth of the yeast but not lead to death.
After completion of the incubation, the culture was centrifuged to collect the cells. To the cells, sodium acetate buffer (50 mM sodium acetate, 10 mM EDTA, 1% SDS) was added, and the mixture was shaken at 65° C. for five minutes, followed by returning to room temperature, and obtaining the supernatant, of which the procedures were repeated two times. To the supernatant, ½ amount of a solution of phenol/chloroform was added, and the mixture was centrifuged to give a supernatant, which was added with an equal amount of chloroform, and the mixture was centrifuged to give a supernatant. To the supernatant, an equal amount of isopropanol containing 0.3 M sodium acetate was added, and the mixture was allowed to stand at room temperature for 30 minutes, after which the mixture was centrifuged to give a sediment of the whole RNAs. Seventy % ethanol was added to the sediment, and the mixture was again centrifuged to give a sediment, which was then dried and dissolved in water. mRNA was isolated from the whole RNAs as followings. In view of the fact that a poly A chain is attached to the 3′ terminus of mRNA, a polynucleotide having a poly T structure which was immobilized on the surface of latex beads was used to trap the mRNA, and then the mRNA was washed and eluted with spine column (Oligotex-dT30<Super>mRNA Purification Kit, Takara). Reverse transcription of the mRNA was conducted with a reverse transcriptase (Super Script II Reverse Transcriptase; catalogue No. 18064-014, GibcoBRL) using fluorescence-labeled nucleotides to give cDNAs that were introduced with Cy3-dUTP or Cy5-dUTP during the reverse transcription.
The labeled cDNAs were dissolved in TE buffer (10mM Tris-HCl/1 mM EDTA, pH8.0), and the solution was dropped on the DNA chip containing the whole genes of yeast (DNA Chip Research Inc. Japan) so that the cDNAs were hybridized on the DNA chip at 65° C. for over 12 hours. The fluoresces intensity of the DNA chip was read with a scanner, and the ratio relative to the fluorescence intensity resulting from the absence of chemical substance was estimated as the following, which is shown in Tables 1 to 9: […]

[Cl][Hg][Cl] [(3), HgCl2]
The level of expressed mRNA in the presence of chemical substance/The level of expressed mRNA in the absence of chemical substance (yeast gene YAR010C): 1.2
The level of expressed mRNA in the presence of chemical substance/The level of expressed mRNA in the absence of chemical substance (yeast gene YBL005W-A): 0.5
The level of expressed mRNA in the presence of chemical substance/The level of expressed mRNA in the absence of chemical substance (yeast gene YBL041W): 0.9
The level of expressed mRNA in the presence of chemical substance/The level of expressed mRNA in the absence of chemical substance (yeast gene YBL043W): 1.1
The level of expressed mRNA in the presence of chemical substance/The level of expressed mRNA in the absence of chemical substance (yeast gene YBL078C): 1.3
The level of expressed mRNA in the presence of chemical substance/The level of expressed mRNA in the absence of chemical substance (yeast gene YBR214W): 5.7
The level of expressed mRNA in the presence of chemical substance/The level of expressed mRNA in the absence of chemical substance (yeast gene YCL020W): 0.5
The level of expressed mRNA in the presence of chemical substance/The level of expressed mRNA in the absence of chemical substance (yeast gene YCL027W): 1.0
The level of expressed mRNA in the presence of chemical substance/The level of expressed mRNA in the absence of chemical substance (yeast gene YCR004C): 12.0
The level of expressed mRNA in the presence of chemical substance/The level of expressed mRNA in the absence of chemical substance (yeast gene YCR071C): 0.9
The level of expressed mRNA in the presence of chemical substance/The level of expressed mRNA in the absence of chemical substance (yeast gene YCR088W): 1.2
The level of expressed mRNA in the presence of chemical substance/The level of expressed mRNA in the absence of chemical substance (yeast gene YDL008W): 1.0
The level of expressed mRNA in the presence of chemical substance/The level of expressed mRNA in the absence of chemical substance (yeast gene YDL238C): 1.1
The level of expressed mRNA in the presence of chemical substance/The level of expressed mRNA in the absence of chemical substance (yeast gene YDR055W): 2.2
The level of expressed mRNA in the presence of chemical substance/The level of expressed mRNA in the absence of chemical substance (yeast gene YDR084C): 1.5
The level of expressed mRNA in the presence of chemical substance/The level of expressed mRNA in the absence of chemical substance (yeast gene YDR085C): 1.6
The level of expressed mRNA in the presence of chemical substance/The level of expressed mRNA in the absence of chemical substance (yeast gene YDR104C): 1.2
The level of expressed mRNA in the presence of chemical substance/The level of expressed mRNA in the absence of chemical substance (yeast gene YDR115W): 0.6
The level of expressed mRNA in the presence of chemical substance/The level of expressed mRNA in the absence of chemical substance (yeast gene YDR259C): 0.4
The level of expressed mRNA in the presence of chemical substance/The level of expressed mRNA in the absence of chemical substance (yeast gene YDR315C): 1.0
The level of expressed mRNA in the presence of chemical substance/The level of expressed mRNA in the absence of chemical substance (yeast gene YDR358W): 0.7
The level of expressed mRNA in the presence of chemical substance/The level of expressed mRNA in the absence of chemical substance (yeast gene YDR388W): 1.2
The level of expressed mRNA in the presence of chemical substance/The level of expressed mRNA in the absence of chemical substance (yeast gene YDR432W): 1.0
The level of expressed mRNA in the presence of chemical substance/The level of expressed mRNA in the absence of chemical substance (yeast gene YDR481C): 1.3
The level of expressed mRNA in the presence of chemical substance/The level of expressed mRNA in the absence of chemical substance (yeast gene YDR510W): 1.5
The level of expressed mRNA in the presence of chemical substance/The level of expressed mRNA in the absence of chemical substance (yeast gene YEL042W): 1.7
The level of expressed mRNA in the presence of chemical substance/The level of expressed mRNA in the absence of chemical substance (yeast gene YEL066W): 1.5
The level of expressed mRNA in the presence of chemical substance/The level of expressed mRNA in the absence of chemical substance (yeast gene YER039C): 1.0
The level of expressed mRNA in the presence of chemical substance/The level of expressed mRNA in the absence of chemical substance (yeast gene YER107C): 1.0
The level of expressed mRNA in the presence of chemical substance/The level of expressed mRNA in the absence of chemical substance (yeast gene YER130C): 0.5
The level of expressed mRNA in the presence of chemical substance/The level of expressed mRNA in the absence of chemical substance (yeast gene YFL022C): 1.5
The level of expressed mRNA in the presence of chemical substance/The level of expressed mRNA in the absence of chemical substance (yeast gene YFL028C): 0.7
The level of expressed mRNA in the presence of chemical substance/The level of expressed mRNA in the absence of chemical substance (yeast gene YFL043C): 0.6
The level of expressed mRNA in the presence of chemical substance/The level of expressed mRNA in the absence of chemical substance (yeast gene YGL158W): 1.9
The level of expressed mRNA in the presence of chemical substance/The level of expressed mRNA in the absence of chemical substance (yeast gene YGL229C): 0.9
The level of expressed mRNA in the presence of chemical substance/The level of expressed mRNA in the absence of chemical substance (yeast gene YGR136W): 1.3
The level of expressed mRNA in the presence of chemical substance/The level of expressed mRNA in the absence of chemical substance (yeast gene YGR189C): 1.5
The level of expressed mRNA in the presence of chemical substance/The level of expressed mRNA in the absence of chemical substance (yeast gene YGR213C): 1.0
The level of expressed mRNA in the presence of chemical substance/The level of expressed mRNA in the absence of chemical substance (yeast gene YGR257C): 0.9
The level of expressed mRNA in the presence of chemical substance/The level of expressed mRNA in the absence of chemical substance (yeast gene YHR004C): 0.8
The level of expressed mRNA in the presence of chemical substance/The level of expressed mRNA in the absence of chemical substance (yeast gene YHR071W): 0.6
The level of expressed mRNA in the presence of chemical substance/The level of expressed mRNA in the absence of chemical substance (yeast gene YHR139C): 6.8
The level of expressed mRNA in the presence of chemical substance/The level of expressed mRNA in the absence of chemical substance (yeast gene YHR142W): 2.1
The level of expressed mRNA in the presence of chemical substance/The level of expressed mRNA in the absence of chemical substance (yeast gene YIL123W): 1.2
The level of expressed mRNA in the presence of chemical substance/The level of expressed mRNA in the absence of chemical substance (yeast gene YIL140W): 1.5
The level of expressed mRNA in the presence of chemical substance/The level of expressed mRNA in the absence of chemical substance (yeast gene YJL073W): 2.5
The level of expressed mRNA in the presence of chemical substance/The level of expressed mRNA in the absence of chemical substance (yeast gene YJL089W): 1.0
The level of expressed mRNA in the presence of chemical substance/The level of expressed mRNA in the absence of chemical substance (yeast gene YJL116C): 1.3
The level of expressed mRNA in the presence of chemical substance/The level of expressed mRNA in the absence of chemical substance (yeast gene YJR004C): 3.4
The level of expressed mRNA in the presence of chemical substance/The level of expressed mRNA in the absence of chemical substance (yeast gene YJR086W): 0.8
